Measured values taken from US11304956B2, “Use of 7-bromo-5-(O-chlorophenyl)-3-propoxy-1,2-dihydro-3H-1,4-benzodiazepin-2-one for inhibition of neuropathic pain and seizures of different etiology” (priority 2016, dated 2022).

Columns and labels:
[1] = tested on: carrageenan rat paw edema; experiment: Carrageenan rat paw edema; format: in vivo, male white rats
Excerpt: Given the fact that Compound 1 affects not only the painful, but also the inflammatory phase, we undertook an in-depth study of its anti-inflammatory effect. The most common screening method of anti-inflammatory activity is the model of inflammatory edema of the rat hind paw, induced by the subplantar administration of various phlogogenic agents. Under the conditions of carrageenan administration, a sufficiently pronounced edema reaction is observed, which slowly develops and persists for a long time. The maximum size of edema is observed in 2-4 hours.
The anti-inflammatory properties of the test compounds were studied in the model of carrageenan rat paw edema. Male white rats weighing 150-180 g were used in the experiments. Before the administration of the experimental substances, the volumes of the rats' paws subsequently injected by phlogogen were measured. The test compounds and the reference drug—diclofenac-sodium, were administered intraperitoneally 40 minutes prior the inflammation induction. The control group of the rats received an equivalent amount of physiological solution in the emulsion with Tween-80. Acute aseptic inflammation was induced by a 1% aqueous solution of 0.1 ml)—carrageenan injection under plantar aponeurosis of the hind paw of animals of the experimental and control groups (see Trinus F. P. Nonsteroidal anti-inflammatory drugs/F. P. Trinus, N. A. Mohort, B. M. Klebanov//K., 1975, pp. 204-231., Winter C. A. Carrageenin—induced edema in hind paw of the rat as an assay for antiinflammatory drugs/C. A. Winter, E. A. Risley, G. V. Nuss//Proc. Soc. Exp. Biol. Med.—1962.—Vol. 111.—P. 544-547). The inflammatory reaction significance was evaluated after two and four hours after the phlogogen injection. Registration of edema size was carried out by mechanical measurement of foot volume in dynamics according to Zakharevsky A. S. (see Zaharevskiy A. S. The influence of some indole derivatives on the nervous system. Diss. cand. med. science/Zaharevskiy Aleksandr Stepanovich-Minsk.—1969.—78-80 p.). The edema extent was estimated according to the difference in volume between the swollen paw and the paw before inflammation induction. The anti-inflammatory efficacy of the test compounds was determined as the ability of the test compounds to suppress the inflammatory response in the experimental animals compared to the control animals and expressed as a percentage. The calculation was carried out according to the following formula:
The percentage of inflammation suppression=(ΔVκ−ΔV ? /ΔVκ)·100%,
where: ΔVκ—the average increase in the volume of the swollen paw in the control;
ΔV ? —the average increase in the volume of the swollen paw in animals injected by experimental substances.

[2] = ED50 by analgesic effect (preliminary studies / literature data); format: in vivo; conditions: according to preliminary studies
Procedure: After oral administration of Compound 1 and ketorolac at a dose of 3 mg/kg (which is ED50 according to the literature data for ketorolac), the degree of analgesic effect of the compound exceeded the effect of reference drug both by strength and duration.
To determine the safety of this compound in a chronic trial during long-term administration, it was administered to rats for 28 days at a dose close to ED50 by analgesic effect (0.5 mg/kg).

[3] = 3.0 mg/kg intraperitoneally 40 min before carrageenan
[4] = 10.0 mg/kg intraperitoneally 40 min before carrageenan

For `CCCOC1N=C(c2ccccc2Cl)c2cc(Br)ccc2NC1=O` (centres unmarked) [Compound 1, 7-bromo-5-(o-chlorophenyl)-3-propoxy-1,2-dihydro-3H-1,4-benzodiazepin-2-one], the “Inhibition of edema in 2 hours (%)” value [1, 3] was 36.7 ± 4.1 %, the “Inhibition of edema in 4 hours (%)” value [1, 3] was 25.00 ± 2.7 % and the “Inhibition of edema in 2 hours (%)” value [1, 4] was 47.0 ± 4.1 %. The “Inhibition of edema in 4 hours (%)” value [1, 4] was 26.70 ± 5.4 % and the ED50 [2] was 0.5 mg/kg.
